Converted amounts (≈) assume the structure as drawn. Read-outs that look alike come from different tables or passages of the source.
Legend:
[1] = versus other proton pump inhibitors such as omeprazole or lansoprazole; cited from earlier work
[2] = solubility of (+), (−) and racemic forms of tenatoprazole in water; format: physicochemical; conditions: for solubility in water relative to the racemic form: versus racemic form
clinical = conditions: human, plasma
[3] = chiral pharmacokinetic study, plasma analysis after chiral separation in genotyped subjects
Experimental: In parallel, a chiral pharmacokinetic study was conducted to assess the preponderance of the pharmacokinetic characteristics of the (−) isomer in the pharmacokinetics of racemic tenatoprazole.
These subjects have a very weak metabolic activity concerning CYP2C19, which is responsible for the metabolism of tenatoprazole. […] These subjects are qualified as slow metabolisers.

Row | solubility [2] | half-life (clinical; 20 mg) | half-life (clinical; 80 mg) | plasma level of the isomer compared with the other isomer ([3]; slow metabolisers, CYP2C19*2/*2 genotype, plasma after chiral separation) | Solubility (water) [2] | solubility in water relative to the racemic form [2] | plasma concentration of the isomer compared with the other isomer ([3]; rapid metabolisers, CYP2C19*1/*1 genotype) | Solubility (water) ([2]; listed as (−) form) | Compound | plasma half-life relative to other proton pump inhibitors [1]
1 | 34.6 µg/mL (≈ 99.9 µM) | ~420 min | ~540 min |  |  |  |  |  | COc1ccc2[nH]c([S+]([O-])Cc3ncc(C)c(OC)c3C)nc2n1 (racemic) [(±)racemic form, (+)-5-methoxy-2-{[(4-methoxy-3,5-dimethyl-2-pyridyl)methyl]sulfinyl}imidazo-[4,5-b]pyridine] | about seven
2 |  |  |  | highly significant increase | 93.0 µg/mL (≈ 268 µM) | ~3 times |  |  | COc1ccc2[nH]c([S+]([O-])Cc3ncc(C)c(OC)c3C)nc2n1 (single isomer, unassigned; (+)) [(+) form] | 
3 |  |  |  |  |  | over 2 times | higher concentration | 74.4 µg/mL (≈ 215 µM) | COc1ccc2[nH]c([S+]([O-])Cc3ncc(C)c(OC)c3C)nc2n1 (single isomer, unassigned; (-)) [(−) enantiomer] | 
